The subject of one assay is D425Med. Description: Xenograft initiation by pretreated cells in athymic (nude) mice. It counts as in vivo. The following applies: treated 48 hours, n=2.
The subject of assay [1] is GBM neurosphere line HSR-GBM1a. Description: CD133 expression in GBM neurosphere culture. It is filed as cell-based. Conditions: 2 μM. The procedure: (§1) (A, B) CD133 is expressed in GBM neurosphere line HSR-GBM1a. (C) The total cell number was decreased upon GSI-18 treatment for 48 h in this line and in the subclones of the line. […] (E) Protein expression of Hes1, a Notch pathway target gene, was reduced upon GSI-18 treatment in GBM neurosphere cells.
It has been shown that the Notch signaling pathway regulates normal stem cells in the Central Neural System (CNS), and that GBMs contain cancer stem cells (CSCs) with higher Notch activity (Cancer Research, 64:7011-21, 2004; Cancer Cell, 9:391-403, 2006). However, it has not been known if Notch pathway blockade could target CSCs in GBM. […] In the present study, we used GBM neurospheres to examine the effects of Notch pathway blockade in GBM. […] Furthermore, overexpression of an active form of Notch2 (NICD2) increases tumor growth in vitro.

The test system of a further assay is DAOY:NICD2. Description: Viable cell mass (CellTITER assay). It counts as cell-based. The following applies: 0.4 μM and 2 μM. The procedure: (§2) The fact that cultures grew 2-fold or more during the same time period that side population was essentially ablated by Notch pathway blockade provides additional support for the notion that medulloblatoma CSC are especially vulnerable to Notch signaling inhibition.
(§3) The DAOY, PFSK, D283 and D425 Med cell lines were obtained from the American Type Culture Collection. The low-passage MB line MB2 was derived from a tumor resected at Johns Hopkins Hospital. For treatment studies, cell were plated and allowed to grow overnight in MEM (Invitrogen, Carlsbad, Calif.) containing 10% FBS, then media was replaced the next morning with low serum (0.5% FBS) MEM containing GSI dissolved in DMSO. RNA and protein extractions, and all cell-based assays, were performed 48 hours after drug application unless otherwise noted. All experiments with error bars were performed in triplicate and shown as mean values with standard error unless otherwise noted. Cell mass was measured using CellTITER assays according to the manufacturer's instructions (Promega, Madison, Wis.). Cell number and viability were assessed using the Guava PCA and Viacount reagent according to instructions (Guava Technologies, Heyward, Calif.). Soft agar assays were performed as previously described (15) and scored either manually after 4 weeks or using as automated reader after 6 weeks. The constitutively active Akt stable cell line was made by transfecting DAOY cells with myristolated Akt (pCB6-IMy-Akt-HA) or control (pCB6+) plasmids (kind gifts from Susan J. Baker) and selecting and maintaining clones in 0.8 mg/ml G418. Soft agar assays were performed as previously described, with colonies counted using an automated reader (15).

The next assay concerns MB cultures. As to the kind of experiment: Viable cell mass (CellTITER assay). It is filed as cell-based. The procedure: as §2, §3
Assay [2] has as its system panel of 10 human pancreatic cancer cell lines. Description: MTT growth assay. Conditions: 96 hours; dosages of 2, 5, and 10 μM. It is filed as cell-based. In general terms: Formazan colour is commonly taken as a measure of viable cells.
The subject of a further assay is MB2. Description: Nestin immunocytochemistry, nestin-positive fraction. It counts as cell-based. Conditions: 2 μM, 48 hours.
Assay [3] relates to Hes1, a Notch pathway target gene. As to the kind of experiment: Hes1 protein expression in GBM neurosphere cells. It is filed as cell-based. The procedure: as §1
In assay [4] the test system is DAOY. Description: Xenograft initiation by pretreated cells injected subcutaneously in athymic (nude) mice. It is filed as in vivo. The procedure:
A clonogenic assay was used to determine whether cells capable of initiating anchorage-independent colonies were depleted by GSI-18. In vehicle-treated DAOY cultures, 2.9% of cells formed large colonies when seeded in soft agar (FIG. 7H). This number dropped to 0.26% when an equal number of viable cells were counted and seeded after 48 hours of treatment with GSI-18, and increased to 7.2% in the presence of constitutive Notch2 activation. Initiation of tumor xenografts was assayed next, a strategy used in several previous studies to examine the presence or absence of cancer stem cells (6-8). DAOY and DAOY:NICD2 cultures were treated with either 2 μM GSI-18 or vehicle alone, and the viable cells remaining after 48 hours counted using Trypan blue. 500,000 viable cells from each group were then injected subcutaneously in athymic (nude) mice. Large xenografts formed at the sites of all 12 control injections. […] To rule out the possibility that cells were alive but moribund following gamma-secretase inhibition, the experiment was repeated with cells counted after a recovery period.

In assay [5] the test system is DAOY. As to the kind of experiment: Apoptosis by cleaved caspase 3 immunofluorescence in nestin-positive and nestin-negative cells. It is filed as cell-based. Conditions: 2 μM, 48 hours.
In assay [6] the test system is DAOY expressing activated Akt. Description: Apoptosis and growth in DAOY subclones expressing constitutively active Akt. It is filed as cell-based. The procedure: (A) Increase of cleaved Caspase 3 and loss of Akt phosphorylation is induced by 0.4 uMor higher levels of GSI-18, while overall levels of Akt and GAPDH are unchanged in DAOY medulloblastoma cells. (B) Cell death in 2 uM GSI-18 is reduced in a representative subclone of DAOY expressing activated Akt as compare to vector transfected cells. (C) Loss of Akt phosphorylation and activation of Caspase3 cleavage is induced by 2 μM or higher levels of GSI-18, while overall levels of Akt and GAPDH are unchanged in GBM neurosphere cells.
It has previously been shown that Akt is a critical effector of Notch-regulated survival and growth outside the brain (26, 27). Therefore, it was examined whether Akt was also a mediator of the pro-survival and pro-growth effects of Notch in brain tumors. GSI-18 blocks the phosphorylation of Akt required for its activation at concentrations as low as 0.4 μM (FIG. 7F). […] Thus the pro-survival effects of Notch signaling in MB appear to be mediated at least in part by Akt.
as §3, with “All experiments with error bars were performed in triplicate and shown as mean values with standard error unless otherwise noted.” left out, “The constitutively active Akt stable cell line was made by transfecting DAOY cells with myristolated Akt (pCB6-IMy-Akt-HA) or control (pCB6+) plasmids (kind gifts from Susan J. Baker) and selecting and maintaining clones in 0.8 mg/ml G418.” left out

In another assay the test system is Panc-1. Description: Colony formation in soft agar (clonogenicity). It is filed as cell-based, human. The following applies: colony counts at two weeks. The text has this:
Specificity of the RNA interference is confirmed by downregulation of Notch1 transcript levels with the specific siRA, but not with the scrambled controls. […] Bar graphs represent colony counts at two weeks, with mean and standard deviations calculated from triplicate experiments.
Bar graphs represent colony counts at two weeks, with mean and standard deviations calculated from triplicate experiments.

Entries after “also recorded” stand apart in the source; their conditions may differ.

`O=S(=O)(NC1C2CCC1Cc1ccccc1C2)c1cccs1` (stereo not drawn) [GSI-18, [11-endo]-N-(5,6,7,8,9,10-hexahydro-6,9-methanobenzo[α][8]annulen-11-yl)-thiophene-2-sulfonamide]: the “engraftment of pretreated cells” value in the assay with D425Med was “failed to engraft”. In assay [1], the “CD133 expression in the whole culture” value is “significantly reduced; also recorded: reduces expression of CD133”. The “growth (viable cell mass) under NICD2 expression” value in the assay on DAOY:NICD2 was “rescued growth”. Also, in the assay on MB cultures (0 μM, 0.4 μM, and 2 μM), the “short-term increases in viable cell mass” value was “reduced in a dose-dependent fashion”. In the assay with MB cultures (same time period in which side population was ablated), the “growth of cultures during Notch pathway blockade” value is reported as at least 2 fold. In assay [2], the “in vitro growth measured by MTT assays” value is “modest to minimal effects on growth”. For the same molecule, in the assay on MB2, the nestin-positive fraction result is “significant reduction”. Further, the “protein expression of Hes1” value in assay [3] is listed as “reduced”. Further, in the assay on DAOY [4] (2 μM, 48 hours pretreatment, 500,000 viable cells injected subcutaneously), the “xenograft formation from pretreated cells” value is recorded as “only one very small lesion formed among the four sites”. The “tumor formation from pretreated cells after recovery” value in the assay with DAOY [4] (two days of treatment, 24 hours recovery in 10% FBS without inhibitor) is given as “unable to form tumors”. The “increase of apoptotic rate in nestin-positive cells (putative CSC)” value with DAOY [5] is listed as “over 10 fold”. Further, the “cell death vs vector transfected cells” value in assay [6] (2 uM, representative subclone of DAOY expressing activated Akt) is listed as “reduced”. In addition, the “apoptotic rate on exposure” value in assay [6] (MB cells stably transfected with constitutively active Akt, 2 μM) was “not significantly increased”. Also, in [6] (two DAOY subclones with constitutively active Akt, data not shown), the “inhibition of cell growth in Akt-transfected subclones” value was “partially rescued”. In addition, the “clonogenicity, colony formation in soft agar” value in the assay with Panc-1 was “significant inhibition of clonogencity”.
